# Where two headings read alike, the source gives them in different places. Where a SMILES comes first, the peptide text is derived from it. Bridges are numbered along the chain shown (N, C = ends). [ ]: non-standard residue; d: D form. The star is where a group is joined. DOTA = O=C(O)CN1CCN(CC(=O)O)CCN(CC(=O)*)CCN(CC(=O)O)CC1; dPhe(4-NHCONH2) = NC(=O)Nc1ccc(C[C@@H](N)C(=O)O)cc1; Dihydroorotyl(S) = O=C1C[C@@H](C(=O)*)NC(=O)N1; Phe(4-Cl) = N[C@@H](Cc1ccc(Cl)cc1)C(=O)O; Phe(4-NH2) = Nc1ccc(C[C@H](N)C(=O)O)cc1
# How the values were obtained:
# [1] = test system: HEK-SST2 cells; test: Sub-cellular redistribution of cell surface-bound radioligand at 37 °C; type: cell-based, human; set-up: reduction of initial surface-bound fraction: concentration or dose not given beside the values
# Protocol: (§1) In vitro assays on intact cells were performed with HEK-SST2 cells seeded in 6-well plates. The plates were pre-treated with a solution of 10% poly-lysine to promote cell attachment. HEK-SST2 cells (about 1 × 10^6 cells) were incubated in 1% (v/v) FBS containing medium at 37 °C/5% CO2 overnight. The day after, the cells were washed with medium, followed by incubation with the adjusted medium volume for 1 h prior starting the experiment.
# (§2) In all assays, non-specific binding of [^177Lu]Lu-OPS201 was determined using 1000-fold excess of the unlabelled SST2 antagonist OPS202, also known as NODAGA-JR11, (where NODAGA is 1,4,7-triazacyclononane,1-glutaric acid-4,7-acetic acid). […] All reported values refer to specific binding (total minus non-specific binding). The radioactivity of all samples was measured in a gamma-counter (COBRA 5003, Packard Instruments). For all binding experiments with membranes, bound radioligand was separated from the one remaining in solution by rapid vacuum filtration, using an M-48 Brandel Cell Harvester (Alpha Biotech Ltd., Glasgow, UK). The filters were dried before being measured in the gamma-counter.
# The cell surface-bound internalisation and dissociation rates of [^177Lu]Lu-OPS201 were studied in HEK-SST2 cells seeded in 6-well plates (10^6 cells/well), which were first placed on ice for 30 min. The experiment was started by adding 2.5 nM [^177Lu]Lu-OPS201 to the medium, and the incubation was carried out at 4 °C for 2 h to prevent internalisation of the radioligand. Afterwards, the cells were washed with ice-cold PBS, and 1 mL/well of fresh pre-warmed (37 °C) medium was added. One plate was immediately treated with ice-cold glycine solution, and then the cells were detached with NaOH to determine the initial surface-bound and internalised fraction. The other plates were incubated at 37 °C for 10, 20, 30, 60, 120 or 240 min (one plate per time point) before the same treatment. At the specified time points, the amount of radioactivity, presented as cell surface-bound, internalised and in medium redistributed radioligand, was expressed in percentage of the cell-associated fraction (surface bound and internalised uptake) at the onset of the redistribution step as control. All reported values have been corrected for non-specific uptake.
# [2] = molecular target: T1, human SST2 (Homo sapiens, UniProt P30874); test: biochemical
# Protocol: (§3) To prepare cell membranes, HEK-SST2 cells were grown to confluence, mechanically disaggregated, washed with PBS (pH 7.4) and re-suspended in 20 mM of homogenisation Tris buffer (pH 7.5) containing 1.3 mM EDTA, 0.25 M sucrose, 0.7 mM bacitracin, 5 µM soybean trypsin inhibitor and 0.7 mM PMSF. The cells were homogenised using Ultra-Turrax, and the homogenised suspension was centrifuged at 500× g for 10 min at 4 °C. The supernatant was collected in centrifuge tubes (Beckman Coulter Inc., Brea, CA, USA). This procedure was then repeated 5 times. The collected supernatant was centrifuged in an ultra-centrifuge (Beckman) at 4 °C for 55 min at 20,000 rpm (approximately 49,000× g). Then, the pellet was re-suspended in 10 mM ice-cold HEPES buffer (pH 7.5), aliquoted, and stored at −80 °C. The protein concentration of those membrane suspensions was determined by the Bradford method, BSA as the standard.
# as §2
# The dissociation of those radioligands was initiated by adding a 1000-fold excess of either unlabelled Lu-OPS201, Lu-DOTA-TATE, DOTA-BASS or lanreotide and monitored for up to 3 h. To monitor the stability of the radioligand–receptor complex during this extended time period, the membranes were incubated with radioligand for up to 4 h.
# [3] = molecular target: T1, human SST2; test: Saturation binding on HEK-SST2 cell membranes
# Protocol: as §3, §2
# The incubation was initiated by adding 30 μL of radioligand solution at 10 times the final concentration and 100 μL of cell membrane suspension to yield 10 μg of protein per well.
# [4] = test system: HEK-SST2 cells; test: Dissociation/release of cell-associated [^177Lu]Lu-OPS201 by intact cells; type: cell-based, human; conditions: after 4 h at 37 °C
# Protocol: In vitro assays on intact cells were performed with HEK-SST2 cells seeded in 6-well plates. The plates were pre-treated with a solution of 10% poly-lysine to promote cell attachment. HEK-SST2 cells (about 1 × 10^6 cells) were incubated in 1% (v/v) FBS containing medium at 37 °C/5% CO2 overnight. The day after, the cells were washed with medium, followed by incubation with the adjusted medium volume for 1 h prior starting the experiment. […] The cells were then incubated at 37 °C under three different conditions: […] At preselected time points, the medium was removed for quantification and replaced by fresh pre-warmed (37 °C) medium (either alone or with the same unlabelled competitor). […] At the end, the cells were treated with NaOH and collected for measurement. All values were also normalised as described above. In both aforementioned experiments, the 37 °C washout medium was repeatedly refreshed in an attempt to limit any re-equilibration between free and cell-associated radioligand and to reduce the accumulation (and thus the rebinding) of radioligand molecules when they were already dispersed in the bulk of the naïve medium. All data were fitted according to the one-phase exponential decay equation (GraphPad Software Inc., Prism 7).
# [5] = test system: HEK-SST2 cells; test: Radioligand binding to and internalisation by intact HEK-SST2 cells; type: cell-based, human; conditions: for cell surface bound fraction of total added radioligand / internalised fraction of total added radioligand: 4 h incubation at 37 °C, 2.5 nM
# Protocol: The HEK-293 cell line expressing the T7-epitope tagged human SST2 (HEK-SST2) was provided by Prof. Stefan Schulz (Institute of Pharmacology and Toxicology, Jena University Hospital, Jena, Germany). HEK-SST2 cells were cultured at 37 °C and 5% CO2 in DMEM containing 10% FBS, 100 U/mL penicillin, 100 µg/mL streptomycin, […] L-glutamine, and 500 µg/mL geneticin (G-418).
# as §1, §2
# After 0.5, 1, 2 and 4 h (one plate per time point), the medium was removed, and the plated cells were quickly washed twice with ice-cold PBS. The cells were then treated twice for 5 min with ice-cold glycine solution (0.05 M, pH 2.8) to detach the cell surface-bound radioligand (acid releasable). Afterwards, the cells containing the internalised radioligand were detached with 1 M NaOH at 37 °C and collected for measurement. The amount of specific cell surface-bound and internalised radioligand is expressed as a percentage of the total applied activity after subtracting the non-specific values.
# [6] = test system: HEK-SST2 cells; test: Externalisation of [^177Lu]Lu-DOTA-TATE by intact cells; type: cell-based, human
# Protocol: In vitro assays on intact cells were performed with HEK-SST2 cells seeded in 6-well plates. The plates were pre-treated with a solution of 10% poly-lysine to promote cell attachment. HEK-SST2 cells (about 1 × 10^6 cells) were incubated in 1% (v/v) FBS containing medium at 37 °C/5% CO2 overnight. The day after, the cells were washed with medium, followed by incubation with the adjusted medium volume for 1 h prior starting the experiment. […] The cells were afterwards incubated at 37 °C under the same three different conditions as above. […] At the end, the cells were treated with NaOH and collected for measurement. All reported values were also normalised as described above. In both aforementioned experiments, the 37 °C washout medium was repeatedly refreshed in an attempt to limit any re-equilibration between free and cell-associated radioligand and to reduce the accumulation (and thus the rebinding) of radioligand molecules when they were already dispersed in the bulk of the naïve medium. All data were fitted according to the one-phase exponential decay equation (GraphPad Software Inc., Prism 7).
# [7] = after 2 h pre-incubation at 4 °C
# [8] = after 4 h of incubation at 37 °C
# T1 sequence (P30874 whole entry): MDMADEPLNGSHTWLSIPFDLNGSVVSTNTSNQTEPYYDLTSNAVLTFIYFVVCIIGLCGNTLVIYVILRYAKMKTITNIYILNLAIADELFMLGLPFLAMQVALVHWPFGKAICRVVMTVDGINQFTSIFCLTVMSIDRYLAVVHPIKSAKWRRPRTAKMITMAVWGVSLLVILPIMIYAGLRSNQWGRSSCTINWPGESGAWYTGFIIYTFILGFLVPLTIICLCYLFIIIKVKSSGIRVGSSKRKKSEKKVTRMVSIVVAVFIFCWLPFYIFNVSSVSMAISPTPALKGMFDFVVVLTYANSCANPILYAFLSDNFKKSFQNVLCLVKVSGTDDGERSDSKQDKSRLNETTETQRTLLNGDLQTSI
compound,measurement,setting,value
"C[C@@H](O)[C@@H]1NC(=O)[C@H](CCCCN)NC(=O)[C@@H](Cc2ccc(NC(N)=O)cc2)NC(=O)[C@H](Cc2ccc(NC(=O)[C@@H]3CC(=O)NC(=O)N3)cc2)NC(=O)[C@H](NC(=O)[C@H](Cc2ccc(Cl)cc2)NC(=O)CN2CCN(CC(=O)O)CCN(CC(=O)O)CCN(CC(=O)O)CC2)CSSC[C@@H](C(=O)N[C@H](Cc2ccc(O)cc2)C(N)=O)NC1=O [[^177Lu]Lu-OPS201, ^177Lu-satoreotide tetraxetan, metal not drawn] ({DOTA}-[Phe(4-Cl)][dC][Phe(4-NH2)](Dihydroorotyl(S))[dPhe(4-NHCONH2)]KTC[dY]-NH2; disulfide 2-7)",internalised fraction of added radioligand,[1]; [7],7%
same,surface-bound fraction of added radioligand,[1]; [7],54%
same,fraction released in the medium,"[1]; after 4 h at 37 °C, undisturbed medium",< 5%
same,internalised fraction (of cell-associated activity),[1]; [8],24%
same,reduction of initial surface-bound fraction,[1]; [8],17%
same,surface-bound fraction (of cell-associated activity),[1]; [8],71%
same,internalised fraction (of cell-associated activity),[1]; t = 0 of 37 °C incubation,12%
same,surface-bound fraction (of cell-associated activity),[1]; t = 0 of 37 °C incubation,88%
same,dissociation t1/2,[2],41 min
same,koff,"[2]; HEK-SST2 membranes, competitor DOTA-BASS",0.0003 s⁻¹
same,koff,"[2]; HEK-SST2 membranes, competitor Lu-OPS201",0.000283 s⁻¹
same,dissociation t1/2,[2]; competitor: excess DOTA-BASS,38 min
same,Bmax,"[3]; HEK-SST2 cell membranes 10 µg/well, 37 °C, single-site model",0.37 ± 0.02 nM
same,Kd,"[3]; HEK-SST2 cell membranes, 37 °C, single-site model",0.15 ± 0.003 nM
same,number of binding sites recognised relative to [^177Lu]Lu-DOTA-TATE,"[3]; saturation binding, HEK-SST2 cell membranes",about four times more sites
same,radioligand released,[4]; repeatedly refreshed naïve medium,40%
same,radioligand released,[4]; washout medium with excess of unlabelled Lu-OPS201 or Lu-DOTA-TATE,70%
same,cell surface bound fraction of total added radioligand,[5],46 ± 2%
same,internalised fraction of total added radioligand,[5],31 ± 1%
"H-D2Nal-c(Cys-Tyr-DTrp-Lys-Val-Cys)-Thr-NH2 [lanreotide, reference compound]",displacement of specifically bound [^177Lu]Lu-OPS201 by the unlabelled agonist,"[2]; high concentration (1000-fold excess) of competitor, HEK-SST2 membranes",no more than 30%
"C[C@@H](O)[C@H](NC(=O)[C@@H]1CSSC[C@H](NC(=O)[C@@H](Cc2ccccc2)NC(=O)CN2CCN(CC(=O)O)CCN(CC(=O)O)CCN(CC(=O)O)CC2)C(=O)N[C@@H](Cc2ccc(O)cc2)C(=O)N[C@H](Cc2c[nH]c3ccccc23)C(=O)N[C@@H](CCCCN)C(=O)N[C@@H]([C@@H](C)O)C(=O)N1)C(=O)O [[^177Lu]Lu-DOTA-TATE, ^177Lu-oxodotreotide, metal not drawn]",decrease of internalised radioligand during washout,"[6]; after 4 h in naïve medium, 37 °C",only partial
same,decrease of internalised radioligand during washout,"[6]; after 4 h in the presence of an excess of Lu-DOTA-TATE and Lu-OPS201, 37 °C",nearly complete
same,cell surface binding at 4 °C,[1]; 4 °C,very low cell surface binding
same,internalised fraction,[5]; 30 min of incubation at 37 °C,more than 50%
same,cell surface bound fraction of total added radioligand,[5],2 ± 1%
same,internalised fraction of total added radioligand,[5],77 ± 3%
